Experiments:
DDB1 = molecular target: T1, DDB1 (Homo sapiens, UniProt Q16531, D705G/DEL396-460/DEL463-701/I704S/T703N); experiment: SPR binding assay to immobilized DDB1ΔBPB; conditions: binding affinities to DDB1
T1 construct: His6 (N, cleaved yes); TEV protease cleavage site (N, cleaved yes); made in house; host or cells: SF9 insect cells, Bac-to-Bac baculovirus, pFastBacHTB vector
Procedure: The binding affinities of heterobifunctional compounds to DDB1 were determined by SPR assay (FIG. 1A-1B). Purified DDB1ΔBPB proteins were immobilized on a CM5 sensor chip, and a dose range of compound solutions were injected in multi-cycle kinetic format. Data were fit to a steady state model to provide equivalent dissociation constants (Kd).
Human DDB1ΔBPB (UniProt: Q16531. BPB domain, aa 396 to 705, is replaced with a GNGNSG linker) coding sequences were cloned into pFastBacHTB vector and were expressed in SF9 cells using Bac-to-Bac baculovirus expression system (Thermo Fisher Scientific). The expression constructs include an N-terminal His6-tag to facilitate the purification, and a TEV protease cleavage site in between. DDB1ΔBPB proteins were obtained from supernatant of cell lysates and purified through sequential application of Ni affinity column (Ni-NTA column, Bio-Rad) and size-exclusion column (Superdex 200 16/600GL column, GE Healthcare) chromatography. Protein tags were cleaved off by TEV protease, and the resulting untagged proteins were further purified by Ni affinity column. Purified proteins were verified by immunoblotting, analytic SEC, and LC-MS.
SPR studies were performed on a Biacore X100 plus instrument (GE Healthcare). Immobilization of purified DDB1ΔBPB was carried out at 25° C. using a CM5 sensor chip. The surface was pre-equilibrated in HBS-EP running buffer (10 mM HEPES, pH7.4, 150 mM NaCl, 3 mM EDTA, 0.05% P20), before it was activated with EDC/NHS. DDB1ΔBPB proteins were immobilized by amine coupling to a density of 10,000-12,000 resonance units (RUs) on flow cell FC2, whereas flow cell FC1 was used as reference. Both protein immobilized and reference surfaces were deactivated with 1M ethanolamine. All interaction experiments were performed at 25° C. Test compounds were prepared and serially diluted in HBS-EP running buffer containing final 5% DMSO (6-point two-fold serial dilution, 100 μM-3.125 μM final concentration of compounds). Compound solutions were injected individually in multi-cycle kinetic format without regeneration (flow rate 30 μl/min, association time 120 s, dissociation time 120 s). Sensorgrams from reference surfaces and blank injections were subtracted from the raw data (double-referencing) and the data was solvent-corrected prior to analysis. All data were fit to steady state affinity model using Biacore Evaluation Software to provide equivalent dissociation constants (Kd).

cyclin D1 = experiment: Cyclin D1 percentage degradation in Calu-1 cells (immunoblotting); type: cell-based; conditions: 16 hours
Summary of the method: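 Cyclin D1 degradation was assessed by western blot. Clarified lysates, obtained by RIPA lysis with inhibitors and centrifugation at 13,000 rpm, were normalized by BCA protein assay and separated by SDS-PAGE. Bands were detected with Western ECL Substrate on a Bio-Rad ChemiDoc MP Imaging system and quantified in Image Lab software to derive percentage degradation.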

CDK4 = molecular target: T2, CDK4 (Homo sapiens, UniProt P11802); experiment: CDK4 percentage degradation in Calu-1 cells (immunoblotting); type: cell-based; conditions: Calu-1 cells, 16 hours; for inhibition at 0.2 µM: 200 nM, read-out: CDK4 Degradation (200 nM); for inhibition at 10 µM: read-out: CDK4 Degradation (10 μM)
T2 construct: endogenous in cells; host or cells: Calu-1
T2 sequence (P11802 2-303 limits assumed): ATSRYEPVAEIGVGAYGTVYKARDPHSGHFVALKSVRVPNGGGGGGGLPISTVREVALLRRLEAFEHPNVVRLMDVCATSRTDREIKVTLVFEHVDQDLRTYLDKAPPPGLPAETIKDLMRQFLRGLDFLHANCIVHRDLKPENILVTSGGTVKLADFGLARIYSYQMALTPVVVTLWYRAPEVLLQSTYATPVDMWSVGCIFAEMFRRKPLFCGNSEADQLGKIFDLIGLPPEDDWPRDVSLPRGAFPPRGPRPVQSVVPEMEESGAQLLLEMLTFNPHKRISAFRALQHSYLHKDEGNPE
T2 sequence (P24385 whole entry partner): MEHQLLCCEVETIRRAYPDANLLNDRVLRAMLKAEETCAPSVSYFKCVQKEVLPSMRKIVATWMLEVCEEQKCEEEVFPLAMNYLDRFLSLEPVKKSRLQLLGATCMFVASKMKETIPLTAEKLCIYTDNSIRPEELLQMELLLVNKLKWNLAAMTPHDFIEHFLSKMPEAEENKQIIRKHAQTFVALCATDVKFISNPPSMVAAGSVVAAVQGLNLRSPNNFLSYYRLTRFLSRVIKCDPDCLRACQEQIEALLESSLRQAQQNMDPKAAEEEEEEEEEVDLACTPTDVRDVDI
T2 sequence (Q16531 2-1140 limits assumed, further chain): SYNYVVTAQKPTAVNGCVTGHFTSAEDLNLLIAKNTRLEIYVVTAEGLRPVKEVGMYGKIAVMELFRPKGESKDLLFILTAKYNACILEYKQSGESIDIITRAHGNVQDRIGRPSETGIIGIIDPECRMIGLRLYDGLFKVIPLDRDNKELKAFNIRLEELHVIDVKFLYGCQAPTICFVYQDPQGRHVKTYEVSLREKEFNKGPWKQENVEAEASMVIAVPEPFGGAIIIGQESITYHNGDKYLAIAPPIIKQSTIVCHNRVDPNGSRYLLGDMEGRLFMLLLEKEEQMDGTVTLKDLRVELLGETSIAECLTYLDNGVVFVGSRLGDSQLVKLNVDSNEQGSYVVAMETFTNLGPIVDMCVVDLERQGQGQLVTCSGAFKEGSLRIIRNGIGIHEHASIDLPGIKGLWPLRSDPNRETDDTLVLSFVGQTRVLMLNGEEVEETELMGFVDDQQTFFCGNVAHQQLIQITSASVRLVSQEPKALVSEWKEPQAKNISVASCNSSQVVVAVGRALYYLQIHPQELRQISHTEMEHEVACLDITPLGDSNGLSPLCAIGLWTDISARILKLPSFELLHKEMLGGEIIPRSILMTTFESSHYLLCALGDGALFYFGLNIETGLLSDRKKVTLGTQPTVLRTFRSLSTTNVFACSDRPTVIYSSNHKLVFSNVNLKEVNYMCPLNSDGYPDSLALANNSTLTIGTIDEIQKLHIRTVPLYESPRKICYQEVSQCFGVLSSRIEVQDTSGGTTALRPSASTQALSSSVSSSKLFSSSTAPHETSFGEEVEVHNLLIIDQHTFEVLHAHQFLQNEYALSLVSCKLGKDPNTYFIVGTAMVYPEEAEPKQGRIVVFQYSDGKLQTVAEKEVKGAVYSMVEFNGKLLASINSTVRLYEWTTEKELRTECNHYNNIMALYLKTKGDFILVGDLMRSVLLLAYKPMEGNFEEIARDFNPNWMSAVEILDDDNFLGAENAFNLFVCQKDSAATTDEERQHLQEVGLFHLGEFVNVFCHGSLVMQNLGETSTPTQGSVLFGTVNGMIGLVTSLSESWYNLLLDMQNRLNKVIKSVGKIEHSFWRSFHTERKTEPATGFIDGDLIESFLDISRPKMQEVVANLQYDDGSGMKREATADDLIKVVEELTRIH
Summary of the method: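 CDK4 degradation was measured by immunoblotting. Cells were washed in cold PBS and lysed in RIPA buffer with inhibitors for 30 min at 4° C., then spun at 13,000 rpm to clear. After BCA protein determination, lysates were heated at 99° C. for 5 min in Laemmli buffer, resolved on SDS-PAGE, imaged on a ChemiDoc MP with ECL substrate, and band intensities quantified.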

T1 sequence (Q16531 other isoform, or with tags, fused parts or gaps DEL396-460/DEL463-701/T703N/I704S/D705G): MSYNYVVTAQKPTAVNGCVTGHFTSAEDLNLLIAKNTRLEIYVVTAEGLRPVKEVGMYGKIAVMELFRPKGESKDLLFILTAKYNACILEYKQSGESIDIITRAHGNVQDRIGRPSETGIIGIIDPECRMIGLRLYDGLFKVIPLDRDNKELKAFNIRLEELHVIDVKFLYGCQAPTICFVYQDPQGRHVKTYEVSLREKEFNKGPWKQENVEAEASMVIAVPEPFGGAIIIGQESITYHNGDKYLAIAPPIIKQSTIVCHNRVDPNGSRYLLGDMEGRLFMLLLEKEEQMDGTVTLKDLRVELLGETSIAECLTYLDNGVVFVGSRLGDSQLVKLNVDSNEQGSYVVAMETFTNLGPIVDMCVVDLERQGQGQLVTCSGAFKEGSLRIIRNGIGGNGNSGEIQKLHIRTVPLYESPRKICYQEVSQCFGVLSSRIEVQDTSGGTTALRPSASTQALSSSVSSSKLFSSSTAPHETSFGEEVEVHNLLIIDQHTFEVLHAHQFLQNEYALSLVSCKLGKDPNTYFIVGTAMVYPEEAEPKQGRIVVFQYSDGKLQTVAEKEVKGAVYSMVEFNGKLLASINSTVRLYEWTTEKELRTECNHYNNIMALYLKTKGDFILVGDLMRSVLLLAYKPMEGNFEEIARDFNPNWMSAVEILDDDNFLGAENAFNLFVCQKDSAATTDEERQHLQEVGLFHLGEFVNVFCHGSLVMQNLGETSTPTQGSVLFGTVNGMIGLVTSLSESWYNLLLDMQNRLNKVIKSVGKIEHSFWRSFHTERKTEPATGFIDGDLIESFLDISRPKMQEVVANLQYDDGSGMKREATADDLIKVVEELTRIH

Row | Kd (DDB1) [µM] | inhibition at 0.2 µM (CDK4) [%] | inhibition at 10 µM (CDK4) [%] | SMILES | CyclinD1 Degradation (200 nM) (cyclin D1) | CyclinD1 Degradation (10 μM) (cyclin D1)
1 | < 20 | > 80 |  | COC(=O)c1nc(NC(=O)c2ccc(NCCOCCOCCOCCOCCOCCNC(=O)CN3CCN(c4ccc(Nc5ncc6c(C)c(C(C)=O)c(=O)n(C7CCCC7)c6n5)nc4)CC3)cc2C)sc1C [CPD-033, Methyl 2-(4-((1-(4-(6-((6-acetyl-8-cyclopentyl-5-methyl-7-oxo-7,8-dihydropyrido[2,3-d]pyrimidin-2-yl)amino)pyridin-3-yl)piperazin-1-yl)-2-oxo-6,9,12,15,18-pentaoxa-3-azaicosan-20-yl)amino)-2-methylbenzamido)-5-methylthiazole-4-carboxylate] | A (protein percentage degradation >=80%) | 
2 | < 20 |  | < 30 | Cc1cnc(NC(=O)c2ccc(NCCOCCOCCOCCOCCOCCNC(=O)CN3CCN(Cc4ccc(Nc5ncc(F)c(-c6cc(F)c7nc(C)n(C(C)C)c7c6)n5)nc4)CC3)cc2C)s1 [CPD-020, 4-((1-(4-((6-((5-Fluoro-4-(4-fluoro-1-isopropyl-2-methyl-1H-benzo[d]imidazol-6-yl)pyrimidin-2-yl)amino)pyridin-3-yl)methyl)piperazin-1-yl)-2-oxo-6,9,12,15,18-pentaoxa-3-azaicosan-20-yl)amino)-2-methyl-N-(5-methylthiazol-2-yl)benzamide] |  | D (protein percentage degradation < 30%)
3 | 50 to 100 |  | > 80 | Cc1cnc(NC(=O)c2ccc(NCCOCCOCCOCCOCCOCCNC(=O)CN3CCN(c4ccc(Nc5ncc6cc(C(=O)N(C)C)n(C7CCCC7)c6n5)nc4)CC3)cc2C)s1 [CPD-023, 7-Cyclopentyl-N,N-dimethyl-2-((5-(4-(20-((3-methyl-4-((5-methylthiazol-2-yl)carbamoyl)phenyl)amino)-2-oxo-6,9,12,15,18-pentaoxa-3-azaicosyl)piperazin-1-yl)pyridin-2-yl)amino)-7H-pyrrolo[2,3-d]pyrimidine-6-carboxamide] |  | A (protein percentage degradation >= 80%)
4 | 20 to 50 |  | 50 to 80 | Cc1cnc(NC(=O)c2ccc(NCCOCCOCCOCCOCCOCCNC(=O)CN3CCN(c4ccc(Nc5ncc(F)c(-c6cc(F)c7nc(C)n(C(C)C)c7c6)n5)nc4)CC3)cc2C)s1 [CPD-021, 4-((1-(4-(6-((5-Fluoro-4-(4-fluoro-1-isopropyl-2-methyl-1H-benzo[d]imidazol-6-yl)pyrimidin-2-yl)amino)pyridin-3-yl)piperazin-1-yl)-2-oxo-6,9,12,15,18-pentaoxa-3-azaicosan-20-yl)amino)-2-methyl-N-(5-methylthiazol-2-yl)benzamide] |  | A (protein percentage degradation >= 80%)
5 | < 20 | > 80 |  | CC(=O)c1c(C)c2cnc(Nc3ccc(N4CCN(CC(=O)NCCOCCOCCOCCOCCOCCNc5ccc(C(=O)Nc6nc(C(C)C)c(C)s6)c(C)c5)CC4)cn3)nc2n(C2CCCC2)c1=O [CPD-043, 4-((1-(4-(6-((6-Acetyl-8-cyclopentyl-5-methyl-7-oxo-7,8-dihydropyrido[2,3-d]pyrimidin-2-yl)amino)pyridin-3-yl)piperazin-1-yl)-2-oxo-6,9,12,15,18-pentaoxa-3-azaicosan-20-yl)amino)-N-(4-isopropyl-5-methylthiazol-2-yl)-2-methylbenzamide] | A (protein percentage degradation >=80%) | 

From US20250235543A1, “MODIFIED PROTEINS AND PROTEIN DEGRADERS” (Cullgen (Shanghai), Inc., priority 2021, published 2025)
